{"source": "patent US10925884B2", "about": "“Methods of diagnosing and treating hepatocellular carcinoma” (MacKay Memorial Hospital, priority 2017, dated 2021)", "key": {"Mahlavu cells [1]": {"system": "Mahlavu cells", "assay": "Colony forming assay, Mahlavu cells", "assay_type": "cell-based, Human", "settings": "various dosage of trilostane, 10 to 13 days, FIG. 2A", "procedure": "(§1) Human HCC cancer cell lines (including Mahlavu, Hep3B, and Huh7) were cultured in Dulbecco's modified Eagle medium (DMEM), supplemented with 10% (v/v) fetal bovine serum and antibiotics (100 units/mL penicillin, 100 μg/mL streptomycin, and 2.5 μg/mL amphotericin B). All cell lines have been periodically authenticated by short tandem repeat analysis at Bioresource Collection and Research Center, Hsinchu, Taiwan (R.O.C.) and tested for being mycoplasma free. Trilostane was purchased from LKT Laboratories, St. Paul, Minn. A total of 500 Mahlavu or Hep3B HCC cancer cells were seeded into 6-well plate and treated with various dosage of trilostane. The medium was replaced every 3 days. After 10 to 13 days, colonies were stained with 3% crystal violet and examined by microscopy. Colonies containing at least 50 individual cells were counted."}, "Hep3B cells [2]": {"system": "Hep3B cells", "assay": "Colony forming assay, Hep3B cells", "assay_type": "cell-based, Human", "settings": "various dosage of trilostane, 10 to 13 days, FIG. 2B", "procedure": "as §1"}, "Mahlavu cells [3]": {"system": "Mahlavu cells", "assay": "Wound healing assay, Mahlavu cells", "assay_type": "cell-based, Human", "settings": "24 hours, FIG. 2C", "procedure": "(§2) Human HCC cancer cell lines (including Mahlavu, Hep3B, and Huh7) were cultured in Dulbecco's modified Eagle medium (DMEM), supplemented with 10% (v/v) fetal bovine serum and antibiotics (100 units/mL penicillin, 100 μg/mL streptomycin, and 2.5 μg/mL amphotericin B). All cell lines have been periodically authenticated by short tandem repeat analysis at Bioresource Collection and Research Center, Hsinchu, Taiwan (R.O.C.) and tested for being mycoplasma free. Trilostane was purchased from LKT Laboratories, St. Paul, Minn. Mahlavu and Hep3B cells (2×10^5 cells/well) were seeded into 6-well plates and grown to confluence overnight. A wound was made by scraping with a sterilized 200-μL pipette tip in the middle of the cell monolayer, and the cells were allowed to migrate to the denuded area for 24 hours. The percentage of wound closure was measured using Olympus IX71 light microscope (Olympus, Tokyo, Japan)."}, "Hep3B cells [4]": {"system": "Hep3B cells", "assay": "Wound healing assay, Hep3B cells", "assay_type": "cell-based, Human", "settings": "24 hours, FIG. 2D", "procedure": "as §2"}, "mahlave cells": {"system": "mahlave cells", "assay": "Transwell migration assay", "assay_type": "cell-based, Human", "settings": "FIG. 2E"}, "[5]": {"system": "phosphorylated MEKK1 (p-MEKK1)", "assay": "Western blot analysis of p-MEKK1 in Mahlavu cells", "assay_type": "cell-based, Human", "settings": "Mahlavu cells after trilostane treatment, FIG. 3", "procedure": "(§3) Total cellular proteins were extracted, quantified, and subject to gel electrophoresis. Whole-cell lysates were isolated from Mahlavu cells. Equal amounts of proteins (40 μg/lane) were electrophoresed in 10% sodium dodecyl sulfatepolyacrylamide gel. The transferred membrane was blocked with 5% defatted milk and immunoblotted with primary antibodies against various proteins, including ERK (total form), p-ERK, p-AKT, E-cadherin, N-cadherin, Snail1, Twist, Vimentin, MLC II (total form), p-MLC II, ROCK, and GAPDH at room temperature for 3 hours. The antigen-antibody complexes were visualized with by chemiluminescence with the Amersham ECL detection system (GE Healthcare, Piscataway, N.J.)."}, "[6]": {"system": "phosphorylated ERK (p-ERK)", "assay": "Western blot analysis of p-ERK in Mahlavu cells", "assay_type": "cell-based, Human", "settings": "Mahlavu cells after trilostane treatment, FIG. 3", "procedure": "as §3"}, "Mahlavu cells [7]": {"system": "Mahlavu cells", "assay": "In vivo xenograft model of HCC", "settings": "Mahlavu xenograft in BALB/c nude mice, 30 or 60 mg/kg intraperitoneally every day for 18 days; FIG. 4", "procedure": "All animal experiments were approved by the Institutional Animal Care and Use Committee of MacKay Memorial Hospital (Taiwan, R.O.C.). 6-week-old male BALB/c nude mice were injected subcutaneously with 1.0×10^7 Mahlavu cells into the bilateral back pad. When the tumor growth reached 50 mm^3, mice were randomly divided into three groups (n=5 mice each group): (1) low-dose group, in which 30 mg/kg of trilostane was intraperitoneally administered to the mouse every day for 18 days; (2) high-dose group, in which 60 mg/kg of trilostane was intraperitoneally administered to the mouse every day for 18 days; and (3) control group, in which vehicle control (Dimethyl sulfoxide, DMSO) of the same volume was intraperitoneally administered to the mouse every day for 18 days. The tumor volume was measured twice a week by the same investigator, and mice were sacrificed when tumors reached 10% of body weight."}}, "data": [{"molecule": "C[C@]12CC[C@H]3[C@@H](CC[C@@]45O[C@@H]4C(O)=C(C#N)C[C@]35C)[C@@H]1CC[C@@H]2O", "note": "[trilostane]", "values": [{"measurement": "colony numbers", "setting": "Mahlavu cells [1]", "value": "decreased colony numbers"}, {"measurement": "colony numbers", "setting": "Hep3B cells [2]", "value": "decreased colony numbers"}, {"measurement": "wound closure", "setting": "Mahlavu cells [3]", "value": "significantly inhibited the wound closure"}, {"measurement": "wound closure", "setting": "Hep3B cells [4]", "value": "significantly inhibited the wound closure"}, {"measurement": "cell migration", "setting": "mahlave cells", "value": "inhibitory effect"}, {"measurement": "expression of phosphorylated MEKK1 (p-MEKK1)", "setting": "[5]", "value": "down-regulated"}, {"measurement": "expression of phosphorylated ERK (p-ERK)", "setting": "[6]", "value": "down-regulated"}, {"measurement": "tumor growth rate", "setting": "Mahlavu cells [7]", "value": "significantly suppressed"}]}]}
